Source: patent publication US10449135B2, “Solublizing agents for UV filters in cosmetic formulations” (BASF SE, priority 2014, dated 2019)

Assay: Solubility tests of UV filters in the solubilizing agent
Type: physicochemical
Conditions: solvent: morpholine amide of formula (AM-01); stirred seven days at 25° C.; concentration by UV/Vis-spectrometry
Experimental: 2 ml of the solubilizing agent are filled into a 20 ml vial with cap. Afterwards 0.02 g (1%) of the respective substance (UV Filter) are weighed and added to the solvent. The vial is placed into a thermostat-controlled water bath, wherein the suspension/solution is stirred during seven days at 25° C. If the amount of substance put into the solubilizing agent is fully soluble, additional substance is added until precipitation can be observed. After seven days, the sample is centrifuged for 30 minutes at 13000 rpm at 25° C. The supernatant is transferred into a small beaker. In case the sample is still turbid, it is filtered through a 0.2 μm non-steril Membrex 25 PET filter. Clear solutions must not be filtered. When a clear solution is obtained, the concentration of the substance is determined with UV/Vis-spectrometry. For this purpose the sample may be diluted with a suitable solvent or, in case of lower concentrations, may be measured as is. In order to evaluate the concentration from the UV-spectroscopic results, the extinction coefficient is needed, which is determined independently with a solvent of similar polarity like that one used for dilution of the saturated solutions. The solubility can be calculated using the equation of the Lambert-Beer-Law.

Solubility of UV filter in solubilizing agent [%] | SMILES
>40 | CCCCCCOC(=O)c1ccccc1C(=O)c1ccc(N(CC)CC)cc1O [BPH-02]
15 | CCCCC(CC)COc1ccc(-c2nc(-c3ccc(OC)cc3)nc(-c3ccc(OCC(CC)CCCC)cc3O)n2)c(O)c1 (stereo not drawn) [HTP-02]
45 | CCCCC(CC)COC(=O)c1ccc(Nc2nc(Nc3ccc(C(=O)OCC(CC)CCCC)cc3)nc(Nc3ccc(C(=O)OCC(CC)CCCC)cc3)n2)cc1 (stereo not drawn) [TAT-02]
